# Experimental data published in patent EP0189002B1, “Treatment of gastrointestinal disorders using 5-HT3 antagonists” (SANDOZ AG, priority 1984, dated 1986).
# Experiments:
# [1] = tested on: muscle strips from different parts of the guinea pig stomach; test: Test A: field stimulation-induced contractions in guinea pig stomach muscle strips; details: facilitation of field stimulation-induced contractions
# Excerpt: The compounds of the invention facilitate field stimulation-induced contractions in muscle strips from different parts of the guinea pig stomach and are therefore indicated to increase decreased peristaltic movements in the stomach and to enhance gastric emptying in vivo. The test is effected as follows:-Male Dunkin-Hartley guinea pigs, 340-450 g, which had been starved overnight, were killed by cervical transsection and the stomach removed and placed in Krebs-Henseleit solution (NaCI 118.0, KCI 4.75, KH2P04 1.2, MgS04 1.2, CaC12 2.5, glucose 10 mM). Segments were taken from the body (approximately 20 mm long, 3-4 mm wide) with dissection in a plane suitable to investigate tension changes in the circular muscle layer. Tissues were placed in 30 ml organ baths containing oxygenated (95% 02, 5% C02) Krebs-Henseleit solution at 37 C. One gram tension was applied to the tissues which were allowed to equilibrate for 45-60 min. before electrical stimulation. […] Responses were measured as changes in gram tension, but to allow easier comparison between treatments, data were converted to show changes as percentage values. The significance of differences between control responses and those obtained in the presence of interacting drugs was assessed using the Mann-Whitney U test.
# [2] = Test B: gastric emptying in conscious guinea pigs (X-ray passage of spheroids); assay type: in vivo; details: enhancing gastric emptying
# Description: The compounds of the invention also induce gastric emptying as indicated in standard in vivo tests, e.g. in conscious guinea pigs having stomachs made atonic (i.e. having decreased peristaltic movements) by fasting and wherein the passage of glass spheroids was observed by X-ray techniques. The experiment is effected as follows: • Food was withdrawn for 14 hours before the measurement of gastric emptying. The experiment was conducted under low illumination which minimal noise and disturbance, and was carried out only by those experimentors who had daily contact with the guinea pigs and who carried out the initial training to accustom the guinea pigs to handling. Therefore, animals were subject to minimal stress. […] Gastric emptying was measured as the number of spheroids leaving the stomach.
# Six guinea pigs were used at each dose level of drug and responses compared to those of guinea pigs receiving the appropriate vehicle. The significance of differences between drug and control responses was assessed using the Mann Whitney U test.
# [3] = Test C: inhibition of 5-hydroxytryptophan (5-HTP) induced increase in gastrointestinal motility (charcoal transit); assay type: in vivo, NMRI mice; details: 30 minutes before 5-HTP 3 mg/kg, mice
# Description: In a further test the inhibition of the increase in gastrointestinal motility induced by 5-hydroxytryptophan (5-HTP) by the compounds of the invention was observed.
# Male NMRI mice (18-32 g in weight) are deprived of food 20 hours before the test. Water is not limited. The animals are separated by a barrier from their straw and access to feces. At the beginning of the test the animals are separated in individual single cages and water is removed.
# All animals were treated with the test compound or saline. l.p. administration was used. Injection volume was 0.1 ml/10 g. 30 minutes after pre-treatment 5-HTP or saline was administered. Injection volume 0.1 ml /10 g. Dose 3 mg/kg. At the same time charcoal was administered perorally (10% suspension in water; 0.1 ml/10g). 45 minutes after the start of the experiment the animals were killed. The intestines from the stomach to the rectum were examined. For each animal the transit distance of the front of the charcoal meal along the intestine was measured. The distance was ascertained as a percentage of the whole intestinal length. Groups of at least 3 animals were used.
# [4] = assay type: in vivo, NMRI mice; details: cholera toxin challenged mice
# [5] = tested on: high affinity 5-HT receptor; test: 5-HT induced contraction of isolated longitudinal muscle of guinea pig ileum, high affinity receptor; details: guinea pig ileum longitudinal muscle strip, 5-HT as agonist
# Excerpt: (§1) The isolated longitudinal muscle of the guinea pig ileum with its adhering myenteric plexus is a well established model which permits investigation of the mechanism of action of various neurtransmitters.
# (§2) Male guinea pigs (200-400 g) were killed by a blow on the head and exsanguinated. A length of small intestine was removed about 2 cm from the ileo-caecal valve. The mesentery was carefully removed and the ileum was stretched over a glass rod. By stroking tangentially away from the mesenteric attachment with a wad of cotton wool, the longitudinal muscle layer was separated and stripped from the unterlying circular muscle. Longitudinal muscle strips, 3-4 cm length, were mounted in a 10 ml organ bath containing Tyrode solution at 37 ° C and bubbled with 5% carbon dioxide in oxygen. […] Contractions were recorded with an isotonic pendulum lever. […]
# (§3) Non-cumulative concentration-response curves for 5-HT were established by adding increasing concentrations of the agonist to the organ bath at intervals of at least 15 min. […] The contractions expressed as percentage of the maximal response to 5-HT obtained from several preparations were plotted as mean values in order to obtain log-concentration-response curves. Inhibition constants were expressed in the form of pA2 values which were graphically determined according to conventional methods (Arunlakshana and Schild, 1959. Mc Kay 1978). […]
# [6] = biological target: T1, low affinity 5-HT receptors (Cavia porcellus, UniProt O70212); test: 5-HT induced contraction of isolated longitudinal muscle of guinea pig ileum, low affinity receptor; details: guinea pig ileum longitudinal muscle strip, 5-HT as agonist
# T1 construct: Longitudinal muscle strips, 3-4 cm length, were mounted in a 10 ml organ bath; from tissue; host or cells: guinea pig ileum longitudinal muscle with adhering myenteric plexus
# T1 sequence (O70212 20-490): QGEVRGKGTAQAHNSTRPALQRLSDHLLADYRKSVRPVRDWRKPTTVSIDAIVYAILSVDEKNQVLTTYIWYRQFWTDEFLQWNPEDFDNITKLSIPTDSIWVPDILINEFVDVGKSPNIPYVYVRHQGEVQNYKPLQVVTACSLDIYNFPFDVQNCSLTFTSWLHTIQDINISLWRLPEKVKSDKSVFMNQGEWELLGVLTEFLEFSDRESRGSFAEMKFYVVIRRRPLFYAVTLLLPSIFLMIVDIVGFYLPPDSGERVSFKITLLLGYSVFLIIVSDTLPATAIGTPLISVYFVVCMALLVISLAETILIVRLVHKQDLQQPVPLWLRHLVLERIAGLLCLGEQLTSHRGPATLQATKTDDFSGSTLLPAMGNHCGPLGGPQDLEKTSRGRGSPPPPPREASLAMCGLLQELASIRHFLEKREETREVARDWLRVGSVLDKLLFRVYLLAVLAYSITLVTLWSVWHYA
# Excerpt: as §1, §2, §3
# [7] = biological target: dopamine binding sites; details: tritiated haloperidol; cited from earlier work
SMILES,ED50 i.p. [3] [mg/kg],pD'2 high affinity receptor [5],pA2 low affinity receptor [6],further results
"CN1[C@@H]2CC[C@H]1C[C@@H](OC(=O)c1c[nH]c3ccccc13)C2 [Compound E, Indol-3-yl carboxylic acid endo-8-methyl-8-aza-bicyclo[3,2,1]-oct-3-yl ester]",0.07,pD'2 = 5.7,pA2 = 7.9,times more active than metoclopramide [1]: 100 times; times more active than metoclopramide [2]: about 50 times; effect of an increase in the dose on stomach contents [4]: did not lead to a reduction in the stomach contents
"CN1[C@@H]2CCC[C@H]1C[C@@H](OC(=O)c1csc3ccccc13)C2 [Compound F, Benzo[b]thiophen-3-yl carboxylic acid endo-9-methyl-asa-bicyclo-[3,3,1]non-3-yl ester]",–,pD'2 = 5.9,pA2 = 9.4,"ED50 ([3]; Mus musculus, i.p.): 0.025 mg/kg"
"CN1[C@@H]2CCC[C@H]1C[C@@H](OC(=O)c1cn(C)c3ccc(F)cc13)C2 [Compound G, 5-fluoro-1-methyl-indol-3-yl carboxylic acid endo-9-methyl-9-aza-bicyclo[3,3,1]non-3-yl ester]",0.002,–,–,–
CCN(CC)CCNC(=O)c1cc(Cl)c(N)cc1OC [metoclopramide],–,–,–,IC50 [7]: ~170 nM
